Measurements as given in patent US20240024273A1, “TOPICAL ADMINISTRATION OF 2-(DIETHYLAMINO)ETHYL 2-(4-ISOBUTYLPHENYL)PROPRIONATE FOR TREATMENT OF DISEASES” (TECHFIELDS PHARMA CO., LTD., priority 2020, published 2024).
Read-outs that look alike come from different tables or passages of the source.

Tests used:
[1] = test system: osteoarthritis of the knee; test: Second Phase 2 study: WOMAC stiffness subscale score; format: in vivo, human; settings: Low Dose (2 spray/knee, 8.75 mg/knee) Cohort
[2] = test system: LPS induced fever; test: LPS induced fever model; format: in vivo, SD Rats; settings: 30 and 90 mg/kg; 4 and 6 hour time points
[3] = test system: Mild to Moderate Osteoarthritis of the Knee; test: Phase 2 study: subject's and physician's global assessment of response to therapy; format: in vivo, human
Description: 3.9.3. Exploratory Efficacy Endpoints: • 1. Subject's global assessment of disease status of the target knee at 2, 4, 8, and 12 weeks of treatment; • 2. Investigator's global assessment of disease status of the target knee at 2, 4, 8, and 12 weeks of treatment; • 3. Subject's global assessment of response to therapy of the target knee at 2, 4, 8, and 12 weeks of treatment; • 4. Investigator's global assessment of response to therapy of the target knee at 2, 4, 8, and 12 weeks of treatment; • 5. Change from Baseline over time in VAS pain scores for the target knee from Daily Diary data; • 6. Amount of rescue medication (acetaminophen) consumed per day for target knee pain.
Data for the exploratory efficacy endpoints will be summarized using descriptive statistics.

[4] = test system: Sprague Dawley rats; test: Respiratory safety pharmacology study; format: in vivo; settings: single dermal dose 50, 250, 750 mg/kg
[5] = test system: Collagen II induced arthritis; test: Collagen II induced arthritis; format: in vivo, Lewis rats; settings: 10, 30 and 90 mg/kg daily, topical
[6] = Phase 1 clinical study: plasma pharmacokinetics of prodrug and ibuprofen; format: in vivo, human; settings: for AUC0-12: read-out: prodrug AUC0-12; for AUC(0-t): read-out: prodrug AUClast; for Cmax: read-out: prodrug Cmax; for Tmax: read-out: prodrug Tmax, median (range); for half-life: read-out: prodrug t1/2 (converted)
Description: Following a 5-day washout period, 2-(diethylamino)ethyl 2-(4-isobutylphenyl)propionate was administered b.i.d. during Days 6-11, and a morning dose only was administered to Day 12. Blood samples were collected for PK analysis over the 120-hour post-dose period following the Day 12 dose. Additionally, pre-dose blood samples were collected on Day 7 through Day 11 to evaluate steady-state status.
The same study procedures were followed as described in Part 1.
For single dose PK, serial blood samples were collected on Day 1 dose at the following time points: 0 (pre-dose), 0.25, 0.5, 0.75, 1, 1.5, 2, 2.5, 3, 4, 5, 6, 8, 10, 12, 18, 24, 48, 72, 96 and 120 hours post-dose.
For multiple-dose PK, serial blood samples were collected on Day 12 at the following time points: 0 (pre-dose), 0.25, 0.5, 0.75, 1, 1.5, 2, 2.5, 3, 4, 5, 6, 8, 10, 12, 18, 24, 48, 72, 96 and 120 hours post-dose.
The relative bioavailability of the single dose 70 mg topical application vs. 70 mg spray application was determined based on AUCtau, AUCinf and Cmax. The 90% confidence intervals (CIs) on the ratio of topical application vs. spray application were calculated.

[7] = human, plasma, topical or ocular, 17.5 mg, Day 1, 17.5 mg topical
[8] = human, plasma, topical or ocular, 17.5 mg, Day 12, 17.5 mg b.i.d. topical
[9] = human, plasma, topical or ocular, 35 mg, Day 1, 35 mg topical
[10] = human, plasma, topical or ocular, 35 mg, Day 12, 35 mg b.i.d. topical
[11] = human, plasma, topical or ocular, 70 mg, Day 1, 70 mg topical
[12] = human, plasma, topical or ocular, 70 mg, Day 12, 70 mg b.i.d. topical
[13] = human, plasma, topical or ocular, 140 mg, Day 1, 140 mg topical
[14] = human, plasma, topical or ocular, 140 mg, Day 12, 140 mg b.i.d. topical
[15] = human, plasma, topical or ocular, 280 mg, Day 1, 280 mg topical
[16] = human, plasma, topical or ocular, 280 mg, Day 12, 280 mg b.i.d. topical
[17] = human, plasma, topical, 70 mg, Day 1, 70 mg spray
[18] = human, plasma, topical, 70 mg, Day 12, 70 mg b.i.d. spray

CCN(CC)CCOC(=O)C(C)c1ccc(CC(C)C)cc1 (centres unmarked) [2-(diethylamino)ethyl 2-(4-isobutylphenyl)propionate]
WOMAC Joint Stiffness Subscale Score, Follow-up, Avg. ([1]; Avg. of all patients (blinded), Follow-up): 41.4
WOMAC Joint Stiffness Subscale Score, Day 1 ([1]; individual patient (blinded), Day 1): 60.5
WOMAC Joint Stiffness Subscale Score, Week 8 ([1]; individual patient (blinded), Week 8): 64.5
LPS induced fever [2]: LPS induced fever was attenuated by middle (30 mg/kg) and high
Physician's global assessment of response to therapy: Excellent ([3]; 8.75 mg/knee (BID)): 11.1%
Physician's global assessment of response to therapy: fair ([3]; 8.75 mg/knee (BID)): 36.5%
Physician's global assessment of response to therapy: good ([3]; 8.75 mg/knee (BID)): 38.1%
Physician's global assessment of response to therapy: none ([3]; 8.75 mg/knee (BID)): 7.9%
Physician's global assessment of response to therapy: poor ([3]; 8.75 mg/knee (BID)): 6.3%
Physician's global assessment of response to therapy: total percentage of excellent and good ([3]; 8.75 mg/knee (BID)): 49.2%
Subject's global assessment of response to therapy: Excellent ([3]; 8.75 mg/knee (BID)): 7.8%
Subject's global assessment of response to therapy: fair ([3]; 8.75 mg/knee (BID)): 29.7%
Subject's global assessment of response to therapy: good ([3]; 8.75 mg/knee (BID)): 43.8%
Subject's global assessment of response to therapy: none ([3]; 8.75 mg/knee (BID)): 9.4%
Subject's global assessment of response to therapy: poor ([3]; 8.75 mg/knee (BID)): 9.4%
Subject's global assessment of response to therapy: total percentage of excellent and good ([3]; 8.75 mg/knee (BID)): 51.6%
Physician's global assessment of response to therapy: Excellent ([3]; 17.5 mg/knee (BID)): 23.2%
Physician's global assessment of response to therapy: fair ([3]; 17.5 mg/knee (BID)): 18.8%
Physician's global assessment of response to therapy: good ([3]; 17.5 mg/knee (BID)): 43.5%
Physician's global assessment of response to therapy: none ([3]; 17.5 mg/knee (BID)): 5.8%
Physician's global assessment of response to therapy: poor ([3]; 17.5 mg/knee (BID)): 8.7%
Physician's global assessment of response to therapy: total percentage of excellent and good ([3]; 17.5 mg/knee (BID)): 66.7%
Subject's global assessment of response to therapy: Excellent ([3]; 17.5 mg/knee (BID)): 20.3%
Subject's global assessment of response to therapy: fair ([3]; 17.5 mg/knee (BID)): 17.2%
Subject's global assessment of response to therapy: good ([3]; 17.5 mg/knee (BID)): 50.0%
Subject's global assessment of response to therapy: none ([3]; 17.5 mg/knee (BID)): 7.8%
Subject's global assessment of response to therapy: poor ([3]; 17.5 mg/knee (BID)): 4.7%
Subject's global assessment of response to therapy: total percentage of excellent and good ([3]; 17.5 mg/knee (BID)): 70.3%
Physician's global assessment of response to therapy: Excellent ([3]; 35 mg/knee (BID)): 18.8%
Physician's global assessment of response to therapy: fair ([3]; 35 mg/knee (BID)): 17.2%
Physician's global assessment of response to therapy: good ([3]; 35 mg/knee (BID)): 42.2%
Physician's global assessment of response to therapy: none ([3]; 35 mg/knee (BID)): 7.8%
Physician's global assessment of response to therapy: poor ([3]; 35 mg/knee (BID)): 14.1%
Physician's global assessment of response to therapy: total percentage of excellent and good ([3]; 35 mg/knee (BID)): 60.9%
Subject's global assessment of response to therapy: Excellent ([3]; 35 mg/knee (BID)): 18.0%
Subject's global assessment of response to therapy: fair ([3]; 35 mg/knee (BID)): 18.3%
Subject's global assessment of response to therapy: good ([3]; 35 mg/knee (BID)): 49.2%
Subject's global assessment of response to therapy: none ([3]; 35 mg/knee (BID)): 9.8%
Subject's global assessment of response to therapy: poor ([3]; 35 mg/knee (BID)): 4.9%
Subject's global assessment of response to therapy: total percentage of excellent and good ([3]; 35 mg/knee (BID)): 67.2%
respiratory changes [4]: 250, and 750 mg/kg of ibuprofenamine were not associated with respiratory
onset of the disease [5]: postponed the onset of the disease.
dose proportionality of prodrug and ibuprofen Cmax and AUC0-last ([6]; 17.5 mg to 280 mg, single and multiple): did not increase in a dose-proportional manner
prodrug mean Cmax after 7 days b.i.d., increase ([6]; 140 mg and 280 mg doses): about 2 fold
prodrug Kel ([6]; Day 12, 17.5 mg b.i.d. topical): 0.0241 (N/A) 1/h
prodrug Kel ([6]; Day 12, 70 mg b.i.d. topical): 0.0656 (N/A) 1/h
prodrug Kel ([6]; Day 12, 140 mg b.i.d. topical): 0.0398 (N/A) 1/h
prodrug Kel ([6]; Day 12, 280 mg b.i.d. topical): 0.0374 (0.0310) 1/h
conversion of absorbed prodrug to ibuprofen ([6]; human, in vivo): > 99%
AUC0-12 [6, 7]: 0.837 ng·h/mL
AUC(0-t) [6, 7]: 1.45 ng·h/mL
Cmax [6, 7]: 0.158 ng/mL
Tmax [6, 7]: 8 h
AUC0-12 [6, 8]: 0.809 ng·h/mL
AUC(0-t) [6, 8]: 1.31 ng·h/mL
Cmax [6, 8]: 0.092 ng/mL
Tmax [6, 8]: 8 h
AUC0-12 [6, 9]: 0.34 ng·h/mL
AUC(0-t) [6, 9]: 0.864 ng·h/mL
Cmax [6, 9]: 0.0862 ng/mL
Tmax [6, 9]: 11 h
AUC0-12 [6, 10]: 1.21 ng·h/mL
AUC(0-t) [6, 10]: 2.29 ng·h/mL
Cmax [6, 10]: 0.153 ng/mL
Tmax [6, 10]: 5.12 h
AUC0-12 [6, 11]: 0.836 ng·h/mL
AUC(0-t) [6, 11]: 1.99 ng·h/mL
Cmax [6, 11]: 0.16 ng/mL
Tmax [6, 11]: 10 h
AUC0-12 [6, 12]: 1.1 ng·h/mL
AUC(0-t) [6, 12]: 1.49 ng·h/mL
Cmax [6, 12]: 0.162 ng/mL
Tmax [6, 12]: 3.5 h
AUC0-12 [6, 13]: 0.478 ng·h/mL
AUC(0-t) [6, 13]: 1.45 ng·h/mL
Cmax [6, 13]: 0.116 ng/mL
Tmax [6, 13]: 18 h
AUC0-12 [6, 14]: 1.82 ng·h/mL
AUC(0-t) [6, 14]: 3.6 ng·h/mL
Cmax [6, 14]: 0.305 ng/mL
Tmax [6, 14]: 2.5 h
AUC0-12 [6, 15]: 0.675 ng·h/mL
AUC(0-t) [6, 15]: 4.48 ng·h/mL
Cmax [6, 15]: 0.233 ng/mL
Tmax [6, 15]: 18 h
AUC0-12 [6, 16]: 3.71 ng·h/mL
AUC(0-t) [6, 16]: 11.6 ng·h/mL
Cmax [6, 16]: 0.505 ng/mL
Tmax [6, 16]: 0.25 h
half-life ([6]; human, plasma, topical or ocular, Day 12, 17.5 mg b.i.d. topical): 28.8 h
half-life ([6]; human, plasma, topical or ocular, Day 12, 70 mg b.i.d. topical): 10.6 h
half-life ([6]; human, plasma, topical or ocular, Day 12, 140 mg b.i.d. topical): 17.4 h
AUC(0-inf) ([6]; human, plasma, topical or ocular, Day 12, 280 mg b.i.d. topical, read-out: prodrug AUCinf): 18.1 ng·h/mL
half-life ([6]; human, plasma, topical or ocular, Day 12, 280 mg b.i.d. topical): 37.8 h
AUC0-12 [6, 17]: 0.514 ng·h/mL
AUC(0-t) [6, 17]: 0.947 ng·h/mL
Cmax [6, 17]: 0.119 ng/mL
Tmax [6, 17]: 10 h
AUC0-12 [6, 18]: 1.06 ng·h/mL
AUC(0-t) [6, 18]: 2.62 ng·h/mL
Cmax [6, 18]: 0.185 ng/mL
Tmax [6, 18]: 3 h
relative bioavailability of spray vs topical application (plasma ibuprofen) ([6]; single application, 70 mg): lower
time by which all subjects had measurable plasma prodrug levels ([6]; topical application): ≤ 3 hours post-dose
